We go through four substances from paper PMC11919836, “Multi-omics analysis reveals Jianpi formula-derived bioactive peptide-YG-22 potentially inhibited colorectal cancer via regulating epigenetic reprogram and signal pathway regulation” (Frontiers in Genetics, 2025).

Experiment [1] concerns HCT116 cells. The experiment is described as follows: CCK-8 cell viability assay of candidate peptides. In kind it is cell-based. The following applies: peptide 5 mg/mL, 24 h, CCK-8, absorbance 450 nm, mean ± SEM n = 3, P < 0.01 vs control. The source says:
(§1) After comparing the differential expressed peptides between two treatment groups: chemotherapy alone (n = 5) and chemotherapy combined with Jianpi formula (n = 5). Six candidate peptides were finally screened out, including YP-16 (YGRKKRRQRRR-GPSVP), YP-17 (YGRKKRRQRRR-OLTSGP), YG-22 (YGRKKRRQRRR-DGSPGKDGVRG), YM-22 (YGRKKRRQRRR-LGEAFDGARDM), YP-23 (YGRKKRRQRRR-MEPLGRQLTSGP), and YD-28 (YGRKKRRQRRR-EDPQGDAAOKTDTSHHD). And then, the candidate peptides were synthesized based on their amino acid sequences to evaluate their effects on HCT116 cell viability. Briefly, a total of 1,500 cells per well were seeded in 96-well plates and incubated overnight in a culture medium under appropriate conditions. Following incubation, the cells were treated with indicated peptides (5 mg/mL) at the desired concentrations for 24 h. Cell viability was then assessed using the CCK-8 assay (Dojindo, Japan), following the manufacturer’s instructions. After adding the CCK-8 reagent and incubating for the recommended time, absorbance was measured at 450 nm using a spectrophotometric plate reader (Bio-Tek, United States). Furthermore, HCT116 cells were treated with varying concentrations of YG-22 (0, 2, 4, 6, 8, and 10 mg/mL) for either 24 or 48 h to determine the IC50 values. After the incubation with YG-22 (IC50 concentration) for 48 h, the HCT116 cells were collected for subsequent analyses, including RNA sequencing (RNA-seq) to evaluate gene expression profiles, liquid chromatography-mass spectrometry (LC-MS) for metabolite analysis, assay for transposase-accessible chromatin using sequencing (ATAC-seq) to assess chromatin accessibility, and chromatin immunoprecipitation sequencing (ChIP-seq) to study the H3K4Me3 profiling and NF-κB protein-DNA interactions.
There were at least three biological replicates, excluding ATAC-seq and ChIP-seq analysis, for each group. Cell viability evaluation data were reported as means ± SEM. Student’s t-test (two-tailed) or one-way ANOVA with Bonferroni’s multiple comparison test were used. P-values of <0.05, or 0.01, or 0.001 were deemed significant.
(In general: Tetrazolium assays rely on reduction of a dye to a coloured formazan, in cell work by metabolically active cells.)

Experiment [2] concerns HCT116 cells. The experiment is described as follows: Transcriptome analysis (RNA-seq) of YG-22-treated cells. The settings on record: HCT116, YG-22 1.769 mg/mL, 48 h, treated vs control. In kind it is cell-based. The source says:
After comparing the differential expressed peptides between two treatment groups: chemotherapy alone (n = 5) and chemotherapy combined with Jianpi formula (n = 5). Six candidate peptides were finally screened out, including YP-16 (YGRKKRRQRRR-GPSVP), YP-17 (YGRKKRRQRRR-OLTSGP), YG-22 (YGRKKRRQRRR-DGSPGKDGVRG), YM-22 (YGRKKRRQRRR-LGEAFDGARDM), YP-23 (YGRKKRRQRRR-MEPLGRQLTSGP), and YD-28 (YGRKKRRQRRR-EDPQGDAAOKTDTSHHD). And then, the candidate peptides were synthesized based on their amino acid sequences to evaluate their effects on HCT116 cell viability. […] Cell viability was then assessed using the CCK-8 assay (Dojindo, Japan), following the manufacturer’s instructions. After adding the CCK-8 reagent and incubating for the recommended time, absorbance was measured at 450 nm using a spectrophotometric plate reader (Bio-Tek, United States). […]
For transcriptome analysis, treated and control HCT116 cells (1 × 10^5) are collected, and total RNA is extracted using RNA isolation kit (Qiagen, Germany) following the manufacturer’s instructions. Total RNA samples were prepared with an initial concentration of at least 20 ng/μL and a total quantity of at least 2 μg, ensuring an A260/A280 ratio between 1.9 and 2.1 for quality control. mRNA was isolated using oligo-dT beads to capture polyA-tailed transcripts, followed by thermal fragmentation into 200–300 bp fragments. […]

The test system of experiment [3] is HCT116 cells. Put plainly: Metabolomics analysis (LC-MS) of YG-22-treated cells. In kind it is cell-based. The settings on record: HCT116, YG-22 1.769 mg/mL, 48 h.
From the text: as §1
For metabolomics analysis, treated and control HCT116 cells (1 × 10^5) are collected, washed with cold PBS, and lysed using 80% methanol to extract metabolites. The lysates are centrifuged at 12,000–15,000 × g at 4°C, and the supernatants are stored at −80°C. Metabolite profiling is performed using liquid chromatography-mass spectrometry (LC-MS) with a reverse-phase LC column and gradient elution, followed by high-resolution mass spectrometry in positive and/or negative ion modes. Data preprocessing involves peak detection, alignment, normalization, and filtering using software such as XCMS or Compound Discoverer. Metabolites are identified by matching m/z values, retention times, and fragmentation patterns to databases like HMDB or METLIN, with MS/MS used for structural confirmation. […] The results are visualized with heatmaps, volcano plots, and pathway diagrams, providing insights into metabolic changes induced by treatment.

Experiment [4] concerns HCT116 cells. The experiment is described as follows: Chromatin accessibility analysis (ATAC-seq) of YG-22-treated cells. In kind it is cell-based. The settings on record: HCT116, YG-22 1.769 mg/mL, 48 h.
From the text: as §1, with “After the incubation with YG-22 (IC50 concentration) for 48 h, the HCT116 cells were collected for subsequent analyses, including RNA sequencing (RNA-seq) to evaluate gene expression profiles, liquid chromatography-mass spectrometry (LC-MS) for metabolite analysis, assay for transposase-accessible chromatin using sequencing (ATAC-seq) to assess chromatin accessibility, and chromatin immunoprecipitation sequencing (ChIP-seq) to study the H3K4Me3 profiling and NF-κB protein-DNA interactions.” left out

The subject of a further experiment is H3K4Me3 in HCT116 cells. The experiment is described as follows: ChIP-seq H3K4Me3 profiling of YG-22-treated cells. In kind it is cell-based, human. The following applies: 48 h.
From the text: as §1
ChIP-seq analysis for H3K4Me3 profiling and NF-κB protein-DNA interactions was conducted using a combination of chromatin immunoprecipitation and high-throughput sequencing. HCT116 cells (5 × 10^6) were fixed with 1% formaldehyde to crosslink proteins and DNA, followed by quenching with glycine and lysis to isolate chromatin. The chromatin was sonicated to fragment DNA, and immunoprecipitation was performed using specific antibodies for H3K4Me3 and NF-κB, coupled with Protein A + G magnetic beads. The immunoprecipitated complexes were reverse crosslinked, and DNA was purified. High-throughput sequencing libraries were prepared through end repair, A-tailing, adapter ligation, and PCR amplification, targeting fragment sizes of 100–300 bp. Sequencing was performed on the Illumina NovaSeq 6,000 platform.
Bioinformatics analysis included quality control using FastQC, adapter trimming with fastp, and alignment of clean reads to the human reference genome (hg38) using Bowtie2. Peak calling was conducted with MACS2 to identify binding sites and histone modifications, followed by annotation using ChIPseeker. Motif analysis, using MEME and HOMER, identified enriched motifs within peak regions, particularly for NF-κB binding. Functional enrichment analysis was carried out with KEGG pathways to link identified peaks to pathways. Visualization tools, such as heatmaps and Circos plots, were used to highlight binding site distribution and signal enrichment across the genome, providing insights into chromatin modifications and transcription factor interactions under experimental conditions.

The test system of a further experiment is NF-κB in HCT116 cells. The experiment is described as follows: ChIP-seq of NF-κB binding in YG-22-treated cells. In kind it is cell-based, human.
From the text: as §1, with “interactions. […]” for “interactions.”
Bioinformatics analysis included quality control using FastQC, adapter trimming with fastp, and alignment of clean reads to the human reference genome (hg38) using Bowtie2. […]

[5] abbreviates: HCT116, YG-22 1.769 mg/mL, ChIP-seq.

Where no end group is shown, it is not given here.

As for YGRKKRRQRRR-EDPQGDAAOKTDTSHHD [YD-28], the “effect on HCT116 cell viability” value with HCT116 cells [1] was “notably reduced cell viability”.

Take “YGRKKRRQRRR-LGEAFDGARDM (YGRKKRRQRRRLGEAFDGARDM) [YM-22]”: in the experiment with HCT116 cells [1], the “effect on HCT116 cell viability” value is on record as “notably reduced cell viability”.

Turning to YGRKKRRQRRR-OLTSGP [YP-17], the “effect on HCT116 cell viability” value in the experiment on HCT116 cells [1] is “notably reduced cell viability”.

Consider YGRKKRRQRRRDGSPGKDGVRG [YG-22], for which the “effect on HCT116 cell viability” value in the experiment on HCT116 cells [1] is “notably reduced cell viability”. In addition, in the experiment with HCT116 cells [2], the “downregulated genes (DEGs)” value is 252 and the “upregulated genes (DEGs)” value is 236. In the experiment on HCT116 cells [3], the “downregulated metabolites, negative ion (NEG) mode” value was determined as 127; the “downregulated metabolites, positive ion (POS) mode” value is 70; the “upregulated metabolites, negative ion (NEG) mode” value is listed as 121; the “upregulated metabolites, positive ion (POS) mode” value worked out at 69. For the same substance, in the experiment with HCT116 cells [4], the “downregulated differential chromatin accessibility peaks” value was 1,697 and the “upregulated differential chromatin accessibility peaks” value stood at 78. Besides, in the experiment with H3K4Me3 in HCT116 cells (setting [5]), the “downregulated differential H3K4me3 peaks” value came out at 385 and the “upregulated differential H3K4me3 peaks” value is on record as 97. For the same substance, in the experiment with H3K4Me3 in HCT116 cells (HCT116, YG-22-treated, control 5.2%), the “intronic H3K4me3 peaks” value is 4.5%. For the same substance, in the experiment with H3K4Me3 in HCT116 cells (HCT116, YG-22-treated, control 7.1%), the “intergenic H3K4me3 peaks” value is 6.3%. Further, the “promoter-associated H3K4me3 peaks” value in the experiment on H3K4Me3 in HCT116 cells (HCT116, YG-22-treated, control 86.3%) turned out to be 87.8%. Also, in the experiment with NF-κB in HCT116 cells (HCT116, YG-22, 48 h, ChIP-seq), the “downregulated NF-κB peaks” value is on record as 36 and the “upregulated NF-κB peaks” value came out at 26. Also, in the experiment on NF-κB in HCT116 cells (HCT116, YG-22-treated, 48 h, control 28.9%), the “NF-κB peaks in distal intergenic regions” value stood at 38.4%.
